According to US12636810B2, “Wood preservative composition comprising 4,5-dichloro-2-octylisothiazol-3(2H)-one, a method treating a wood substrate therewith, and a wood product produced therefrom” (KOPPERS PERFORMANCE CHEMICALS, INC., priority 2021, dated 2026):

Test: Organic solvent solvency with DCOI and retaining additive testing
Assay type: physicochemical
Set-up: key: Low: low solvency; Medium: medium solvency; High: high solvency
Settings: 23.5% DCOI and 25.0% Chempol 801-2164 in the solvent; 40 degrees Fahrenheit; separation, precipitation, turbidity
Method: For testing the solvency (i.e., ability to dissolve) of the organic solvent for DCOI and the retaining additive, 4.7 gram of DCOI and 5.0 g of retaining additive were dissolved in 10.3 gram of organic solvent to make a 23.5% of DCOI and 25.0% resin solution in a clear 20 ml glass vial. Thereafter, the vial is stored at a selected temperature (i.e., ambient temperature, 40 degrees Fahrenheit, or 120 degree Fahrenheit or whenever a crosslinking may occur). The vial is monitored for up to 7 days for phase separation, precipitation, and turbidity, which may indicate incompatibility between the organic solvent and the retaining additive and/or DCOI. The as prepared solution is maintained at room temperature and 40 degrees Fahrenheit for up to 7 days or whenever a phase separation, precipitation or solution turbidity event happens to disqualify the solution.
The solvents were tested at 40 degrees Fahrenheit and rated low solvency, medium solvency, or high solvency based on the amount, if any, of separation, precipitation, and turbidity observed in each solution.

With OCc1ccccc1 [Benzyl Alcohol] the “DCOI/Resin Solvency” value was “High”.
